Source: patent publication US20220030866A1, “CONJUGATES OF AUXIN ANALOGS” (The State of Israel, Ministry of Agriculture & Rural …, priority 2019, published 2022)

Tests used:
Assay type in all cases: in vivo
mung bean cuttings = test: rooting of mung bean cuttings (number of adventitious roots per cutting); conditions: for effect on AR formation in mung bean cuttings, in words: tested at 2, 10 or 50 μM
Description: Mung bean cuttings have been used for many years as a model for assessing the effect of plant hormones and synthetic chemicals on the rooting process. In the present study, this system was used to ascertain activity of conjugates in inducing adventitious root (AR) formation, and to evaluate the rate of conjugate hydrolysis that releases the free active auxin. […] The rooting activity in this system is determined by the number of adventitious roots per cutting.
The mung bean model was used to examine the activity of conjugates of three phenoxy acids, 4-CPA, MCPA, and 2-DP, on rooting. For comparison, plants were treated with (unconjugated) IBA or with 2-DP conjugated to glycine methyl ester (Gly-ME).

[1] = tested on: cuttings from mature Eucalyptus grandis trees; test: rooting of cuttings from mature Eucalyptus grandis trees; conditions: 100 μM conjugate without IBA, or 28 mM (6000 ppm) IBA alone; submerging base or spraying; scored after 45-60 days
Description: Eight-year-old Eucalyptus grandis plants were grown from seeds and placed in a net house in 20 liter pots containing peat and tuff (70:30, v/v), drip irrigated and fertilized with 3 liters of Shefer™ 737 liquid fertilizer (ICL Fertilizers, Israel) per cubic meter of water. Cuttings were collected from branches which grew 2-2.5 meters above the ground. Cuttings were 2-3 mm thick branches, 15 cm long, with 1-2 pairs of leaves. The leaf blades were cut in half to decrease transpiration. Cuttings were treated with 6000 ppm IBA (potassium indole-3-butyric acid) for 1 minute with or without 100 μM of each tested compound. The tested compounds were either applied to the base of the cutting, with or without IBA and/or sprayed on the foliage in the presence of 0.05% Triton™ X-100 surfactant. Cuttings were rooted in rooting tables heated to 25° C. under constant 90% humidity, in a controlled-climate greenhouse. The rooting medium contained crushed polystyrene foam: vermiculite no. 3: pit (3:2:1, v/v/v). Rooting was recorded after 30-60 days. Roots system architecture was analyzed by WinRHIZO™ system scanner and software.
Exemplary conjugates prepared as described in Example 1 were tested for their ability to promote adventitious root (AR) formation in cuttings from mature eucalyptus (Eucalyptus grandis) trees. In this model, AR formation is difficult to induce, with 5-15% root development in the presence of IBA potassium salt [Abu-Abied et al., Plant J 2012, 71:787-799], such that effective AR formation indicates a potent root formation activity.
Various concentrations and mode of applications were tested for each compound in the presence or absence of IBA (the “gold standard” rooting enhancer). A concentration of 100 μM of each conjugate was used for an initial screen of 37 conjugates, in which the compounds were applied to the base of the cutting by dipping (submerging the cutting base in a solution of the conjugate for one minute) or to the foliage by spraying. After 45 days, the cuttings were scored for the presence of callus or roots.
Conjugates prepared as described herein were evaluated in a Eucalyptus grandis rooting model, according to procedures such as described hereinabove. The bases of cuttings (a 12-15 cm long branch with the two upper leaves, whose blades were cut in half) were dipped in a solution containing 6000 ppm IBA potassium salt and 50 μM of conjugate for 1 minute, and the leaves were sprayed with 50 μM of the same conjugate (mixed with 0.5% Triton™ X-100 surfactant). The cuttings were imbedded in a heated (25° C.) rooting table containing a 1:2:3 ratio of peat:vermiculite:polystyrene, under 90% relative humidity.

[2] = tested on: cuttings from mature Eucalyptus grandis trees; test: as above; conditions: 100 μM compound by submerging or spraying, with 6000 ppm IBA
DR5:venus marker = test: auxin activity by DR5:venus fluorescence in Arabidopsis plants; conditions: 10 μM
Description: Imaging was performed using an SP8 Leica confocal microscope including solid-state lasers producing 405, 488, 514 and 552 nm light, and hybrid or PMT detectors. Objectives were either PL APO 20×/0.75, WD 0.62 mm or PL APO 63×/1.2 WD 0.3 mm. For fluorescence measurements, the Imaris™ spot detection option (Bitplane A.G.) was used to segment nuclei and calculate the average signal intensity.
One technique for assessing auxin activity of the 4-CPA amino acid conjugates utilized plants expressing nucleus-localized, fluorescent DR5:venus marker, the expression level of which is an indicator of intracellular auxin activity [Laskowski et al., PLoS Biol 2008, 6:e307]. Four days old seedlings grown on regular MS medium were transferred to plates containing 10 μM of the tested compounds and fluorescence was inspected by confocal microscope after 24 hours.
In order to assess the ability of the abovementioned sodium salts to penetrate the cells and activate an auxin response, an Arabidopsis DR5-Venus model was utilized (as described hereinabove). The plants were exposed to 10 μM of each compound for 24 hour; MS medium was used as a negative control, and the related Compounds 1p, 1r and 1t were used as positive controls.

[3] = tested on: avocado rootstock cuttings; test: rooting of avocado rootstock cuttings; conditions: for root architecture / root length of VC801 avocado cuttings compared to IBA control, in words: VC801 rootstock
From the text: Avocado rootstock is extremely difficult to root. Currently, the common technique for propagating clones of avocado rootstock is to graft the desired rootstock on a seedling, and transfer to the dark to generate an etiolated branch. This branch can be rooted and grafted with the desired variety while still grafted on the seed [Frolich & Platt, California Avocado Society 1971-72 Yearbook 1972, 55:97-109]. However, the preparation of such twice-grafted seedlings is time-consuming and expensive.
The ability of exemplary conjugates to promote rooting in green avocado cuttings (in the presence of IBA) was therefore examined. In particular, Compounds 2h (MCPA-methanol), 4b (NAA-β-alanine methyl ester), 3g (2-DP-methyl-4-aminobenzoate), 3f (2-DP-p-toluidine), 1l (4-CPA-morpholine) and is (4-CPA-D-Trp) were tested.
(§1) Exemplary conjugates were also tested for rooting the hard-to-root species of avocado (VC801 rootstock) and argan, according to procedures described hereinabove.

[4] = tested on: argan (Argania spinosa) cuttings; test: rooting of argan cuttings; conditions: in vivo
Description: The ability of exemplary conjugates to promote rooting in plants which are recalcitrant to rooting (in addition to the results obtained with Eucalyptus grandis in Example 3) was examined using cuttings of argan (Argania spinosa) and jojoba (Simmondsia chinensis) in a commercial nursery (Shorashim). The argan and jojoba cuttings were treated with 100 μM of a conjugate (any of Compounds 10-1t) with 6000 ppm IBA. The common treatment T-8 (talc with 8000 ppm IBA and a fungicide) or 6000 ppm IBA (without conjugate) served as a control.
as §1

[5] = tested on: Pinus halepensis cuttings; test: rooting and root development in pine cuttings; conditions: 400 ppm IBA potassium salt + 5 ppm conjugate, 4 hours dip; 12 weeks
Description: The effects of exemplary D-amino acid conjugates of 4-CPA (Compounds to and Is) on rooting in Pinus halepensis cuttings were compared with those of 2-DP-glycine methyl ester conjugate (2-DP-Gly). Rooting mature pine cuttings (i.e., cuttings that are taken from trees more than 4 years old) is very difficult.
Apical cuttings were taken from 7-year-old trees, stored for 4 weeks at 4° C., and treated by dipping the cutting bases for 4 hours in the following solution: 400 ppm IBA potassium salt+5 ppm tested conjugate+0.1% Amistar™ fungicide (250 grams/liter azoxystrobin). The cuttings were evaluated after 12 weeks.

Arabidopsis seedlings = test: root elongation inhibition in Arabidopsis seedlings; conditions: 50 nM, after 5 days
Description: Adventitious roots (ARs) were induced in intact plants, using previously described procedures [Gutierrez et al., Plant Cell 2009, 21:3119-3132; Abu-Abied et al., Plant J 2012, 71:787-799; Rasmussen et al., Plant Physiol 2012, 158:1976-1987]. Briefly, seeds were germinated on MS/0.8% agar plates supplemented with 3% sucrose. The plates were kept in the dark for 2 days at 4° C., then 5 days at 22° C. in the dark, 2 days in the light, 3 days in the dark and then additional 4 days in the light to complete 2 weeks when roots were counted using a stereoscope. Sensitivity to auxin and/or auxin analogs was determined by following root elongation on vertical plates. The 4-day-old seedlings were transferred to MS plates containing 0.05 or 0.5 μM IAA and the root length was measured after 5 days, including the number of LRs in each root and calculation of the LR density. Each treatment experiment included 10-15 plants and was repeated 3 times.
A common technique for evaluating auxin activity is by determining the ability of a compound to inhibit root elongation [Zolman et al., Genetics 2000, 156:1323-1337]. In order to use this assay for comparing auxin activities of different conjugates, the minimum concentration of free 4-CPA that is active in the root elongation inhibition assay was determined. Four days old seedlings were placed in vertical plates containing increasing concentrations of 4-CPA. The root lengths were marked daily during 5 days.
Based on the above results, the effect of conjugates of 4-CPA (Compounds 1o-1t) on root elongation after 5 days was determined at concentrations of 50 nM.

[6] = Table 1, 10 μM, water control 29.6
[7] = Table 1, 50 μM, water control 29.6

O=C(COc1ccc(Cl)cc1)NCCO [Compound 1a, 4-CPA-ethanolamine]
rooting of mung bean cuttings (number of roots per cutting) (mung bean cuttings; [6]): 49.5 | rooting of mung bean cuttings (number of roots per cutting) (mung bean cuttings; [7]): 14.9 | percentage of cuttings which exhibited rooting, stand-alone treatment [1]: 15% | rooting in combination with IBA compared with IBA alone, in words [2]: enhanced rooting in comparison with IBA alone

COC(=O)c1ccc(NC(=O)COc2ccc(Cl)cc2)cc1 [Compound 1g, 4-CPA-methyl-4-aminobenzoate]
rooting of mung bean cuttings (number of roots per cutting) (mung bean cuttings; [6]): 0 | rooting of mung bean cuttings (number of roots per cutting) (mung bean cuttings; [7]): 0 | rooting in combination with IBA compared with IBA alone, in words [2]: enhanced rooting in comparison with IBA alone

O=C([O-])C[C@H](NC(=O)COc1ccc(Cl)cc1)C(=O)[O-].[Na+].[Na+] [Compound 84, 4-CPA-L-Asp disodium salt]
DR5 fluorescence (auxin activity), in words (DR5:venus marker): did not promote DR5 activity

Cc1ccc(NC(=O)C(C)Oc2ccc(Cl)cc2Cl)cc1 (centres unmarked) [Compound 3f, 2-DP-p-toluidine]
roots per cutting of green avocado branches compared with etiolated branches treated with IBA, in words ([3]; vc51 rootstock, IBA with compound): considerably more roots per cutting | rooting success rate of green avocado branches, in words ([3]; vc51 rootstock, IBA with compound, compared with IBA alone): considerably enhanced the rooting success rate | rooting in combination with IBA compared with IBA alone, in words [2]: enhanced rooting in comparison with IBA alone

COC(=O)CCNC(=O)COc1ccc(Cl)cc1 [Compound 1b, 4-CPA-β-alanine methyl ester]
rooting of mung bean cuttings (number of roots per cutting) (mung bean cuttings; [6]): 0 | rooting of mung bean cuttings (number of roots per cutting) (mung bean cuttings; [7]): 0 | rooting in combination with IBA compared with IBA alone, in words [2]: enhanced rooting in comparison with IBA alone

COC(=O)[C@H](Cc1cnc[nH]1)NC(=O)COc1ccc(Cl)cc1 [4-CPA-L-His-methyl ester]
number of roots per cutting in argan clone YM3 compared to IBA control, in words [4]: considerably increased the number of roots per cutting | root architecture / root length of VC801 avocado cuttings compared to IBA control, in words [3]: considerably increased root length

Cc1ccc(NC(=O)COc2ccc(Cl)cc2)cc1 [Compound 1f, 4-CPA-p-toluidine]
rooting of mung bean cuttings (number of roots per cutting) (mung bean cuttings; [6]): 0 | rooting of mung bean cuttings (number of roots per cutting) (mung bean cuttings; [7]): 0 | rooting in combination with IBA compared with IBA alone, in words [2]: enhanced rooting in comparison with IBA alone

CC(C)[C@H](NC(=O)COc1ccc(Cl)cc1)C(=O)[O-].[Na+] [Compound 83, 4-CPA-L-Val sodium salt]
DR5 fluorescence (auxin activity), in words (DR5:venus marker): about as active as their non-water soluble methyl esters

COC(=O)CNC(=O)C(C)Oc1ccc(Cl)cc1Cl (centres unmarked) [Compound 2-DP-Gly, reference compound]
rooting of mung bean cuttings (number of roots per cutting) (mung bean cuttings; [7]): 97.2 | effect on AR formation in mung bean cuttings, in words (mung bean cuttings): positively correlated to dose | Degree of root development Medium (%) [5]: 6.6% | Degree of root development Weak (%) [5]: 46.7% | Degree of root development Well-developed (%) [5]: 46.7% | Rooting rate (%) [5]: 87.5%

COC(=O)C(C)Oc1ccc(Cl)cc1Cl (centres unmarked) [Compound 3h, 2-DP-methanol]
rooting in combination with IBA compared with IBA alone, in words [2]: enhanced rooting in comparison with IBA alone

COC(=O)[C@H](CC(N)=O)NC(=O)COc1ccc(Cl)cc1 [4-CPA-L-Asn-methyl ester]
number of roots per cutting in argan clone YM3 compared to IBA control, in words [4]: considerably increased the number of roots per cutting | root architecture / root length of VC801 avocado cuttings compared to IBA control, in words [3]: considerably increased root length

COC(=O)C[C@H](NC(=O)COc1ccc(Cl)cc1)C(=O)OC [Compound 1r, 4-CPA-L-Asp-methyl diester]
rooting of mung bean cuttings (number of roots per cutting) (mung bean cuttings; Table 2, 2 μM): 121 | rooting of mung bean cuttings (number of roots per cutting) (mung bean cuttings; Table 2, 10 μM): 34 | rooting of mung bean cuttings (number of roots per cutting) (mung bean cuttings; Table 2, 50 μM): 0 | effect on AR formation in mung bean cuttings, in words (mung bean cuttings): exhibited more activity than the D-Asp-methyl ester conjugate | effect on root elongation relative to control, in words (Arabidopsis seedlings): inhibited root elongation relative to control | rooting in combination with IBA compared with IBA alone, in words [2]: at least as potent as that of their corresponding D-amino acid conjugates

COC(=O)CNC(=O)COc1ccc(Cl)cc1 [Compound 4-CPA-Gly, 4-CPA-Gly-methyl ester]
appearance of the base of mung bean cuttings (mung bean cuttings; FIGS. 4A, 4B): appeared swollen, but no AR developed | effect on AR formation in mung bean cuttings, in words (mung bean cuttings): induced a similar rooting rate only at the lowest tested concentration of 2 μM | rooting in combination with IBA compared with IBA alone, in words [2]: exhibited lower rooting activity than the other conjugates
